One compound from US20030108576A1, “Composition” (Colgate-Palmolive Company, priority 2001, published 2003) can be followed below.

Each structure is given as a SMILES string.

The data set in a line: Vitamin E stability aging of the compositions in clear PET packaging. The data set is classed as physicochemical. Here is the method:
Samples of each example are put on stability aging using clear PET packaging at room temperature, 77° F.; high temperature, 110° F.; and in the window for natural sunlight exposure. Samples are evaluated for vitamin content initially, then again at 4,8, and 13 weeks. Below are the results.

Regarding `CC(C)(C)c1cc(O)ccc1O` [2-tertiary butyl hydroquinone], the “retention of vitamin E compared with other antioxidants” value (77° F. and 110° F.) is listed as “essentially equivalent to the other antioxidants”. Also, for the setting “sunlight”, the “retention of vitamin E in sunlight compared with other test antioxidants” value is on record as “substantially more retention of vitamin E in sunlight than any of the other test antioxidants”.
